Here are results for 60 compounds from patent publication US8022091B2, “Triazole derivative” (Taisho Pharmaceutical Co., Ltd., priority 2006, dated 2011).

For the first assay, the target named is T1, human Edg-1 (S1P1) (Homo sapiens, UniProt P21453).
T1 construct: expressed in transfected cells; host or cells: HEK-293
T1 sequence (P21453 whole entry): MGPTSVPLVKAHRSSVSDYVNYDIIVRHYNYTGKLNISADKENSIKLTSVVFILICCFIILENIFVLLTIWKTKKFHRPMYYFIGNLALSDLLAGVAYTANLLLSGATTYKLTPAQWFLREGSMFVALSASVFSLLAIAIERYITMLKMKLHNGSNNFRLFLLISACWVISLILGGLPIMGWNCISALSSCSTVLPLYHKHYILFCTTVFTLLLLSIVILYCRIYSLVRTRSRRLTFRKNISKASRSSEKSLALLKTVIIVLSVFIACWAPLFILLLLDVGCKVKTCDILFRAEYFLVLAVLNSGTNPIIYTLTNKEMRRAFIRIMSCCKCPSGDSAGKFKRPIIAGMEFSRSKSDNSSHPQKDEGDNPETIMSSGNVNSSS
In words: S1P1 binding assay: inhibition of [33P]-S1P binding to membrane fraction of HEK-293 cells transferred with the human Edg-1 (S1P1) gene. The settings on record: test compound 10 μM; inhibition of [33P]-S1P binding, membrane fraction. The method, boiled down: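 With 0.1 nM [33P]-S1P and compound (10^−5M single point, or a concentration range for IC50) in 0.1% DMSO, membrane fractions from human Edg-1-expressing HEK-293 cells were treated for one hour at 30° C in 20 mM Tris-HCl pH 7.4 with NaF, deoxypyridoxine and BSA. Bound label was measured after filtration, with untransfected-cell background subtracted.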
What is called inhibition is the relative decrease from the control value, in per cent. In the case of `CCn1c(Oc2ccc3cc[nH]c3c2)nnc1[C@@H](C)NS(=O)(=O)c1cc(Br)ccc1Br` [Compound 428], the inhibition at 10 µM was determined as 81.4%.

Take `CCn1c(Oc2ccc3cc[nH]c3c2)nnc1[C@@H](C)NS(=O)(=O)c1cccc(C(C)=O)c1` [Compound 477]: the inhibition at 10 µM came out at 58.1%.

As to `CCn1c(Oc2cccc(N3CCN(C)CC3)c2)nnc1[C@@H](C)NS(=O)(=O)c1cc(F)c(Br)cc1F` [Compound 557], the inhibition at 10 µM worked out at 107%. As for `CCn1c(Oc2cccc(N3CCN(C)CC3)c2)nnc1[C@@H](C)NS(=O)(=O)c1ccc(Br)c(C(F)(F)F)c1` [Compound 657], the inhibition at 10 µM was determined as 94.9%. Still for that read-out and setting: for `CCn1c(Oc2cccc(N3CCN(C)CC3)c2)nnc1[C@@H](C)NS(=O)(=O)c1cc(C)c(Cl)cc1C` [Compound 510] the value was 114%; for `CCn1c(Oc2cccc(N3CCN(C)CC3)c2)nnc1[C@@H](C)NS(=O)(=O)c1ccccc1OC` [Compound 626], 61.1%; for `CCn1c(Oc2ccc3cc[nH]c3c2)nnc1[C@@H](C)NS(=O)(=O)c1c(F)c(Br)cc(F)c1Br` [Compound 420], 61%.

For the compound `CCn1c(Oc2cccc(N3CCN(C)CC3)c2)nnc1[C@@H](C)NS(=O)(=O)c1c(C)c(C)c(C)c(C)c1C` [Compound 561], the inhibition at 10 µM came to 92.4%. On the same count and under the same terms, for `CCn1c(Oc2ccc3cc[nH]c3c2)nnc1[C@@H](C)NS(=O)(=O)c1ccc(Cl)c(S(N)(=O)=O)c1` [Compound 484] the value was 65.3%; for `CCn1c(Oc2cccc(N3CCN(C)CC3)c2)nnc1[C@@H](C)NS(=O)(=O)c1c(C)nn(C)c1Cl` [Compound 540], 64.3%; for `CCn1c(Oc2cccc(N3CCN(C)CC3)c2)nnc1[C@@H](C)NS(=O)(=O)c1ccc(C(C)C)cc1` [Compound 573], 86.3%. Turning to `CCn1c(Oc2cccc(N3CCN(C)CC3)c2)nnc1[C@@H](C)NS(=O)(=O)c1ccc2c(c1)CCO2` [Compound 672], the inhibition at 10 µM was found to be 103%.

`CCn1c(Oc2ccc3cc[nH]c3c2)nnc1[C@@H](C)NS(=O)(=O)c1ccc(F)c(F)c1` [Compound 413]: the inhibition at 10 µM amounted to 95.3%. With `CCn1c(Oc2ccc3cc[nH]c3c2)nnc1[C@@H](C)NS(=O)(=O)c1cc(F)c(F)cc1Cl` [Compound 412], the inhibition at 10 µM is 82.5%. Regarding `CCn1c(Oc2cccc(N3CCN(C)CC3)c2)nnc1[C@@H](C)NS(=O)(=O)Cc1ccc(Cl)c(Cl)c1` [Compound 586], the inhibition at 10 µM is 87.9%.

Turning to `CCn1c(Oc2ccc3cc[nH]c3c2)nnc1[C@@H](C)NS(=O)(=O)c1csc2ccccc12` [Compound 494], the inhibition at 10 µM is 66%. Same read-out and setting: for `CCn1c(Oc2cccc(N3CCN(C)CC3)c2)nnc1[C@@H](C)NS(=O)(=O)c1ccc(F)cc1Br` [Compound 609] the value was 93.1%.

Turning to `CCn1c(Oc2cccc(N3CCN(C)CC3)c2)nnc1[C@@H](C)NS(=O)(=O)c1cccc(Cl)c1` [Compound 572], the inhibition at 10 µM was 96.5%. Still for that read-out and setting: for `CCn1c(Oc2cccc(N3CCN(C)CC3)c2)nnc1[C@@H](C)NS(=O)(=O)c1c(Cl)cc(Br)cc1Cl` [Compound 617] the value was 77.5%; for `CCn1c(Oc2cccc(N3CCN(C)CC3)c2)nnc1[C@@H](C)NS(=O)(=O)c1cccc(OC(F)F)c1` [Compound 604], 109%; for `CCn1c(Oc2cccc(N3CCN(C)CC3)c2)nnc1[C@@H](C)NS(=O)(=O)c1ccc2c(c1)CCN2C(C)=O` [Compound 677], 60.8%. Same read-out and setting: for `CCn1c(Oc2cccc(N3CCN(C)CC3)c2)nnc1[C@@H](C)NS(=O)(=O)c1cccc(OC)c1` [Compound 556] the value was 105%. The same measure, in the same setting: for `CCn1c(Oc2cccc(N3CCN(C)CC3)c2)nnc1[C@@H](C)NS(=O)(=O)c1ccccc1C(F)(F)F` [Compound 546] the value was 55.8%; for `CCn1c(Oc2cccc(N3CCN(C)CC3)c2)nnc1[C@@H](C)NS(=O)(=O)c1c(Cl)ccc2nonc12` [Compound 542], 50.1%; for `CCn1c(Oc2cccc(N3CCN(C)CC3)c2)nnc1[C@@H](C)NS(=O)(=O)CC1CCCCC1` [Compound 627], 90%. On to `CCn1c(Oc2cccc(N3CCN(C)CC3)c2)nnc1[C@@H](C)NS(=O)(=O)c1csc2ccccc12` [Compound 662], for which the inhibition at 10 µM stood at 95.4%. Still for that read-out and setting: for `CCn1c(Oc2cccc(N3CCN(C)CC3)c2)nnc1[C@@H](C)NS(=O)(=O)c1cnn(-c2ccccc2)c1C` [Compound 637] the value was 50.6%; for `CCn1c(Oc2cccc(N3CCN(C)CC3)c2)nnc1[C@@H](C)NS(=O)(=O)c1ccc(F)cc1F` [Compound 568], 71.1%; for `CCn1c(Oc2cccc(N3CCN(C)CC3)c2)nnc1[C@@H](C)NS(=O)(=O)c1ccc(NC(C)=O)c(Cl)c1` [Compound 593], 65.9%. Same read-out and setting: the result for `CCn1c(Oc2cccc(N3CCN(C)CC3)c2)nnc1[C@@H](C)NS(=O)(=O)c1ccc(-c2ccno2)s1` [Compound 598] reads 89.5%; that for `CCn1c(Oc2cccc(N3CCN(C)CC3)c2)nnc1[C@@H](C)NS(=O)(=O)c1cc(Cl)c(Cl)cc1Cl` [Compound 526], 112%; that for `CCn1c(Oc2cccc(N3CCN(C)CC3)c2)nnc1[C@@H](C)NS(=O)(=O)c1ccc2c(c1)OCO2` [Compound 675], 96.6%. Still for that read-out and setting: for `CCn1c(Oc2ccc(F)cc2)nnc1[C@@H](CF)NS(=O)(=O)c1ccc(Cl)c(Cl)c1` [Compound 689] the value was 92.7%; for `CCn1c(Oc2cccc(N3CCN(C)CC3)c2)nnc1[C@@H](C)NS(=O)(=O)c1cc(F)ccc1C` [Compound 560], 74.4%. As for `CCn1c(Oc2cccc(N3CCN(C)CC3)c2)nnc1[C@@H](C)NS(=O)(=O)c1ccc(-c2csnn2)s1` [Compound 538], the inhibition at 10 µM is 97.1%. On the same count and under the same terms, the result for `CCn1c(Oc2ccc3cc[nH]c3c2)nnc1[C@@H](C)NS(=O)(=O)c1cc(OC)ccc1OC` [Compound 400] reads 75.3%; that for `CCn1c(Oc2cccc(N3CCN(C)CC3)c2)nnc1[C@@H](C)NS(=O)(=O)c1cc(Cl)cc(Cl)c1` [Compound 554], 116%.

Turning to `CCn1c(Oc2cccc(N3CCN(C)CC3)c2)nnc1[C@@H](C)NS(=O)(=O)c1ccc(F)c(F)c1` [Compound 581], the inhibition at 10 µM stood at 99.9%.

The same assay, now with this note: test compound at 10 μM; inhibition of [33P]-S1P binding to the membrane fraction of HEK-293 cells expressing human Edg-1 (S1P1).
On to `CCn1c(Oc2ccc(F)cc2)nnc1[C@@H](C)NS(=O)(=O)c1cc(C)c(Cl)cc1Cl` [Compound 248], for which the inhibition at 10 µM was 105%. Still for that read-out and setting: for `CCn1c(Oc2ccc(F)cc2)nnc1[C@@H](C)NS(=O)(=O)c1ccc(OC)c(OC)c1` [Compound 170] the value was 76%; for `CCc1cc(Br)ccc1S(=O)(=O)N[C@H](C)c1nnc(Oc2ccc(F)cc2)n1CC` [Compound 234], 50.6%; for `CCn1c(Oc2ccc(F)cc2)nnc1[C@@H](C)NS(=O)(=O)c1cccc(Cl)c1Cl` [Compound 209], 91.4%.

For the compound `CCn1c(Oc2ccc3cc[nH]c3c2)nnc1[C@@H](C)NS(=O)(=O)c1cccc(C#N)c1` [Compound 338], the inhibition at 10 µM turned out to be 69.2%. `CCn1c(Oc2ccc(F)cc2)nnc1[C@@H](C)NS(=O)(=O)c1cccc(Cl)c1C` [Compound 214]: the inhibition at 10 µM came out at 102%. On to `CCn1c(Oc2ccc(F)cc2)nnc1[C@@H](C)NS(=O)(=O)c1ccc(Br)cc1Br` [Compound 260], for which the inhibition at 10 µM amounted to 74.1%. The same measure, in the same setting: the result for `CCn1c(Oc2ccc3cc[nH]c3c2)nnc1[C@@H](C)NS(=O)(=O)c1sc2ccc(Cl)cc2c1C` [Compound 339] reads 62.8%; that for `CCn1c(Oc2ccc3cc[nH]c3c2)nnc1[C@@H](C)NS(=O)(=O)c1ccc(-c2csnn2)s1` [Compound 368], 60.5%. Same read-out and setting: for `CCn1c(Oc2ccc(F)cc2)nnc1[C@@H](C)NS(=O)(=O)c1ccc(OC(F)F)cc1` [Compound 263] the value was 82.6%; for `CCn1c(Oc2ccc3cc[nH]c3c2)nnc1[C@@H](C)NS(=O)(=O)c1cccc(Cl)c1C` [Compound 384], 88.1%; for `CCn1c(Oc2ccc3cc[nH]c3c2)nnc1[C@@H](C)NS(=O)(=O)c1cc(C(F)(F)F)cc(C(F)(F)F)c1` [Compound 382], 66.9%. For `CCn1c(Oc2ccc3cc[nH]c3c2)nnc1[C@@H](C)NS(=O)(=O)c1cc(C)ccc1OC` [Compound 393], the inhibition at 10 µM amounted to 79.7%. Same read-out and setting: the result for `CCn1c(Oc2ccc(F)cc2)nnc1[C@@H](C)NS(=O)(=O)c1cccc(C#N)c1` [Compound 165] reads 72.9%. Same read-out and setting: the result for `CCn1c(Oc2ccc(F)cc2)nnc1[C@@H](C)NS(=O)(=O)c1ccc(Br)c(F)c1` [Compound 275] reads 107%. On the same count and under the same terms, for `CCn1c(Oc2ccc(F)cc2)nnc1[C@@H](C)NS(=O)(=O)c1cc(C)sc1C` [Compound 300] the value was 82.1%; for `CCn1c(Oc2ccc3cc[nH]c3c2)nnc1[C@@H](C)NS(=O)(=O)c1c(C)cc(OC)c(C)c1C` [Compound 388], 65.8%; for `CCn1c(Oc2ccc(F)cc2)nnc1[C@@H](C)NS(=O)(=O)c1cc(F)cc(Cl)c1C` [Compound 233], 87.1%.

As to `CCn1c(Oc2ccc(F)cc2)nnc1[C@@H](C)NS(=O)(=O)c1ccc(C#N)cc1` [Compound 223], the inhibition at 10 µM turned out to be 90.8%. Turning to `CCn1c(Oc2ccc(F)cc2)nnc1[C@@H](C)NS(=O)(=O)c1ccc(S(C)(=O)=O)cc1` [Compound 177], the inhibition at 10 µM was 55.3%.

As for `CCn1c(Oc2ccc(F)cc2)nnc1[C@@H](C)NS(=O)(=O)c1ccc(OC)cc1OC` [Compound 301], the inhibition at 10 µM was 78.8%.

Regarding `CCn1c(Oc2ccc3cc[nH]c3c2)nnc1[C@@H](C)NS(=O)(=O)c1ccc(C(C)=O)cc1` [Compound 327], the inhibition at 10 µM was determined as 92.3%.
